# Results as given in article PMC6385020 (Molecules, 2019).
# pIC50: −log10 of the molar value. Where “and” joins values, the source holds several entries; their conditions need not be identical. Equal values may be shown once.
# Experiments:
# [1] = test system: G4-DNA structures (F-21-T, F-myc-T, F-21CTA-T, F-CEB25-WT-T); test: FRET-melting assay (ligand-induced stabilization); format: binding, human; conditions: 1 µM ligand, 0.2 µM DNA, all G4-DNA structures, K+1 or K+10 buffer
# Procedure: (§1) For the G4-FID assay, the oligonucleotides were dissolved in K^+100 buffer (10 mM lithium cacodylate buffer pH 7.3, 100 mM KCl, 1% DMSO). Oligonucleotide concentrations were determined on the basis of their absorbance at 260 nm. For the fluorimetric titration, the oligonucleotides were dissolved in K^+100 buffer without DMSO. For the FRET-melting assay, the oligonucleotides were dissolved in K^+1 buffer (10 mM lithium cacodylate buffer pH 7.3, 1 mM KCl, 99 mM LiCl) except for F-21-T. F-21-T was dissolved in K^+10 buffer (10 mM lithium cacodylate buffer pH 7.3, 10 mM KCl, 90 mM LiCl).
# (§2) Prior to use, all oligonucleotides were pretreated by heating at 95 °C for 5 min, then rapidly cooled to 4 °C to favor the intramolecular folding by kinetic trapping. Duplex-DNA ds26 was prepared by heating the self-complementary strand at 90 °C for 5 min in K^+1 buffer followed by a slow cooling over 6 h.
# The stabilization of the compounds with a quadruplex-structure was monitored via FRET-melting assay performed in 96-well plates on a real-time PCR apparatus 7900HT Fast Real-Time PCR System as follows: 5 min at 25 °C and then an increase of 0.5 °C every minute until 95 °C. Each experimental condition was tested and replicated in a volume of 25 μL for each sample. The FRET-melting assay was performed with three dual fluorescently labeled DNA oligonucleotide sequences oligonucleotides. The donor fluorophore was 6-carboxyfluorescein, FAM, and the acceptor fluorophore was 6-carboxytetramethylrhodamine, TAMRA. The 96-well plates (Applied Biosystems) were prepared by aliquoting the annealed DNA (0.2 μM in K^+1 or K^+10 buffer) into each well, followed by 1 μL of the ligand ([…] (5 eq) in DMSO). For competition experiments, duplex competitors were added to 200 nM quadruplex sequences at final concentrations of 3.0 μM (15 eq) and 10.0 μM (50 eq), with a total reaction volume of 25 μL, with the labeled oligonucleotide (0.2 μM) and the ligand (1 μM). Measurements were made with excitation at 492 nm and detection at 516 nm. The change in the melting temperature at 1.0 μm compound concentration, ΔTm (1.0 μM), was calculated from at least two experiments by subtraction of the blank from the averaged melting temperature of each compound (1.0 μM). The final analysis of the data was carried out using Origin Pro 8.6 data analysis.
# [2] = test system: CEB25-WT minisatellite sequence G4; test: PhenDV G4-FID assay; format: binding; conditions: PhenDV 1.5 eq, K+100 buffer
# Procedure: as §1, §2
# (§3) Each G4-FID assay was performed in a 96-well Non-Binding Surface black with black bottom polystyrene microplates (Corning). Every ligand was tested on a line of the microplate, in duplicate. The microplate was filled with (a) K^+100 solution (qs for 200 μL), (b) 10 μL of a solution of pre-folded oligonucleotides (5 μM) and fluorescent probe (TO/TO-PRO-3 (10 μM—2 eq) or PhenDV (7,5 µM—1.5 eq)), and (c) an extemporaneously prepared 5 μM ligand solution in K^+100 buffer (0 to 100 μL) along the line of the microplate, i.e., from column A to column H: 0, 0.125, 0.25, 0.375, 0.5, 0.625, 0.75, 1.0, 1.25, 1.5, 2.0, and 2.5 μM. After 5 min of orbital shaking at 500 rpm, fluorescence is measured using the following experimental parameters: positioning delay of 0.5 s, 20 flashes per well, emission/excitation filters for TO at 485/520, TO-PRO-3 at 620/670, and PhenDV at 355/520 gain adjusted at 80% of the fluorescence from the most fluorescent well (i.e., a well from column A for TO and a well from column H).
# (§4) In the case of PhenDV, the fluorescence of the unbound probe is not negligible. The percentage of displacement becomes (2) % PhenDV Displacement=F−F0/Fligand+probe−F0
# (§5) The PhenDV displacement is calculated from the fluorescence intensity F; F(ligand+probe), which refers to the fluorescence of the probe in presence of the ligand (without G4); and F0, which is the fluorescence without added ligand. The term F(ligand+probe) is necessary as the ligand can quench the fluorescence of the probe. The percentage of displacement is then plotted as a function of the concentration of the added ligand. The DNA affinity was evaluated by the concentration of ligand required to decrease the fluorescence of the probe by 50%, was noted DC50, and was determined after non-linear fitting of the displacement curve.
# [3] = test system: 22AG human telomeric sequence G4; test: PhenDV G4-FID assay; format: binding; conditions: PhenDV 1.5 eq, K+100 buffer
# Procedure: as §1, §2, §3, §4, §5
# c-myc G4 = test: PhenDV G4-FID assay; format: binding; conditions: PhenDV 1.5 eq, K+100 buffer
# Procedure: as §1, §2, §3, §4, §5
# [4] = test system: A2780cis cisplatin-resistant ovarian cancer cell line; test: Cell growth (proliferation), 96 h treatment; format: cell-based, human; conditions: 96 h treatment; for pIC50: A2780cis
# Procedure: The ovarian carcinoma cell lines and human normal lung cells were purchased from ATCC and were grown in complete RPMI medium (ovarian) and DMEM (human lung cells) supplemented with 10% fetal calf serum, in the presence of penicillin, streptomycin. The resistance of A2780cis cells to cisplatin was maintained by monthly treatment with 1 µM cisplatin for 4 days. Concentrated stock solutions of complexes were conserved at −20 °C (DMSO/Water) and freshly diluted in water just before the experiments. Cells were treated with various concentrations of platinum complexes at 37 °C under humidity and 5% CO2 conditions for 96 h. Cellular growth was quantified using the particle counter MOXI (VWR).
# [5] = test system: c-myc (myc22) (DNA, G4) TGAGGGTGGGTAGGGTGGGTAA; test: G4-FID, thiazole orange displacement; conditions: 100 mM KCl; 10 mM lithium cacodylate pH 7.3, 1% DMSO; thiazole orange displaced; 1 µM compound, 0.25 µM DNA
# [6] = test system: 21CTA (DNA, G4) AGGGCTAGGGCTAGGGCTAGGG; test: G4-FID, thiazole orange displacement; conditions: 100 mM KCl; 10 mM lithium cacodylate pH 7.3, 1% DMSO; thiazole orange displaced; 1 µM compound, 0.25 µM DNA
# duplex ds26 DNA = test: TO G4-FID assay; format: binding; conditions: ds26, K+100 buffer
# Procedure: as §1, §2
# Each G4-FID assay was performed in a 96-well Non-Binding Surface black with black bottom polystyrene microplates (Corning). Every ligand was tested on a line of the microplate, in duplicate. […] After 5 min of orbital shaking at 500 rpm, fluorescence is measured using the following experimental parameters: positioning delay of 0.5 s, 20 flashes per well, emission/excitation filters for TO at 485/520, TO-PRO-3 at 620/670, and PhenDV at 355/520 gain adjusted at 80% of the fluorescence from the most fluorescent well (i.e., a well from column A for TO and a well from column H).
# The percentage of TO displacement is calculated from the fluorescence intensity (F), using (1) % TO displacement=1−F/F0 where F0 is the fluorescence from the fluorescent probe bound to DNA without added ligand.
# The PhenDV displacement is calculated from the fluorescence intensity F; F(ligand+probe), which refers to the fluorescence of the probe in presence of the ligand (without G4); and F0, which is the fluorescence without added ligand. The term F(ligand+probe) is necessary as the ligand can quench the fluorescence of the probe. […]
SMILES,"∆Tm (ligand-induced stabilization, FRET-melting) [1]",% of PhenDV displacement at 1 µM of ligand [2],% of PhenDV displacement at 1 µM of ligand [3],% of PhenDV displacement at 1 µM of ligand (c-myc G4),Resistance Factor (IC50ratio A2780cis/A2780) [4],pIC50 [4],% TO displacement [5],% TO displacement [6],% of TO displacement at 1 µM of ligand (duplex ds26 DNA)
Cc1ccc(-c2cc(-c3ccccn3)nc(-c3ccccn3)c2)cc1.[Cl-].[Cl][Pt+] [Pt-ttpy],> 10 °C,45%,63%,22%,1.0,5.60,> 80%,> 80%,< 20%
"[Cl-].[Cl][Pt+].c1ccc(-c2cc(-c3ccc(OCCN4CCCC4)cc3)nc(-c3ccccn3)n2)nc1 [Pt-cpym, Chloro-(2,4-di(pyridin-2-yl)-6-(4-(2-(pyrrolidin-1-yl)ethoxy)phenyl)pyrimidine)-platinum(II) Chloride]",< 10 °C,33%,43%,3%,1.3,5.30,< 60%,< 60%,2%
CN(C)CCCNCc1ccc(-c2cc(-c3ccccn3)nc(-c3ccccn3)c2)cc1.[Cl-].[Cl][Pt+] [Pt-ctpy],> 10 °C,72%,84%,29%,1.1,5.30,> 80%,> 80%,< 20% and 17%
[Cl-].[Cl][Pt+].c1ccc(-c2cccc(-c3ccccn3)n2)nc1 [Pt-tpy],< 10 °C,13%,24%,5%,1.6,5.30,,,
"CN(C)c1ccc(/C=C/c2cc(-c3ccccn3)nc(-c3ccccn3)n2)cc1.[Cl-].[Cl][Pt+] [Pt-vpym, Chloro-(E)-4-(2-(2,6-di(pyridin-2-yl)pyrimidin-4-yl)vinyl)-N,N-dimethylaniline-platinum(II) Chloride]",< 10 °C,,,,0.6,6.40,,,
